Experimental data reported in patent US3991187A, “Medicinal compositions and methods of use involving phosphoric acid esters” (Aktiebolaget Leo, priority 1971, dated 1976).
Counter-ions that a name gives are not always drawn.

Key:
[1] = test system: gerbil colon; experiment: smooth muscle stimulatory effect on the gerbil colon in vivo; set-up: species or system mongolian gerbils; settings: for contraction of the colon: i.v., same dose range (from 40 mg/kg)
Experimental: This example illustrates the smooth muscle stimulatory effect of esters of this invention on the gerbil colon in vivo.
The experiments are performed with mongolian gerbils, anesthetized with pentobarbital, 50 mg/kg. The ascending colon is exposed and carefully stretched between silk thread loops and a strain-gauge transducer.
After a stable base-line has been established an ester of this invention, sodium bis (4-(3-oxo-3-(2,4,6-trihydroxyphenyl)-propyl)phenyl) phosphate is infused i.v.
In doses from 40 mg/kg this treatment causes the gut to respond with a series of contractions.

[2] = test system: prostaglandins E1, E2 F1α and F2α; experiment: PG-inhibitory effect on the isolated gerbil colon; format: cell-based, Gerbils (Meriones unguiculatus); settings: for selective inhibitory effects compared with PPP: gerbil colon; for concentration for 50 per cent reduction of the PG-induced contraction, as fraction of that of PPP: relative to PPP (10-75 μg/ml)
Experimental: The PG-inhibitory effect of esters of the present invention on the gerbil colon are determined using the general technique described by Eakins, Miller & Karim (J. Pharm. Exp. Ther. 176:441, 1971). Gerbils (Meriones unguiculatus) of own breed, both sexes, weighing 50-80 g are used. The animal is stunned, colon ascendens immediately removed, and a 2-3 cm piece mounted in a 6 ml bath containing a modified de Jalon solution at 28° C and continuously oxygenated. Contractions of the organ are registered either isotonically or isometrically. When testing the inhibitory effect of a compound this is added to the bath 2 min before the addition of prostaglandin. […] Several concentrations of each antagonist are used.

[3] = test system: bronchial smooth muscle; experiment: isolated perfused guinea-pig lung preparation, bronchoconstriction; format: cell-based, guinea pigs
Excerpt: The effects of esters of the present invention on bronchial smooth muscle have been investigated using an isolated perfused guinea-pig lung preparation according to Bhattacharya & Delaunois (Arch. Int. Pharmacodyn. 101:495, 1955). The lungs from guinea pigs weighing 300-400 g are removed, and the trachea and A. pulmonalis cannulated. The arterial cannula is connected to a perfusion fluid reservoir containing Tyrode solution buffered with 10 % Sorensen phosphate buffer. The tracheal cannula is connected with tubing to a carbogen gas supply delivering a constant amount per time unit. The perfusion pressure is measured in a side arm of the tubing with a "Mercury" transducer connected to an Ultralette UV-recorder. The compounds are injected via the arterial cannula, close to the entrance of A. pulmonalis in the lung.

[4] = test system: Slow Reacting Substance (SRS); experiment: antagonism to Slow Reacting Substance on the isolated guinea-pig ileum (Mathe & Strandberg); format: cell-based
Experimental: The antagonism to Slow Reacting Substance (SRS) is determined on the isolated guinea-pig ileum as described by Mathe & Strandberg (Acta physiol. scand. 82:460, 1971). Purified SRS is obtained from cat paws perfused with compound 48/80 (Strandberg & Uvnas: Acta physiol. scand. 82:358, 1971). Sodium bis(4-(3-oxo-3-(2,4,6-trihydroxyphenyl)propyl)phenyl) phosphate was tested in this system in several concentrations.

[5] = test system: PGE1; experiment: prostaglandin-stimulated glycolysis of the prepubertal ovary (lactic acid production); format: cell-based, rats; settings: for prostaglandin inhibiting activity: compared with the compound giving 50% reduction at 50-100 μg/ml
Experimental: The action of esters of the present invention on the prostaglandin-stimulated glycolysis of the prepubertal ovary is investigated. The method used has been described in detail by Perklev & Ahren (Life Sciences Part I, 10:1387, 1971). In these experiments ovaries from prepubertal rats are removed and placed in Erlenmeyer flasks containing compounds of this invention dissolved in Krebs biocarbonate buffer. After that the ovaries have been preincubated during 60 min. at 37° C in this medium, they are blotted on filter paper and then washed for 2 min. in plain buffer. The ovaries are then transferred to a new incubation medium containing prostaglandins (PG) dissolved in Krebs bicarbonate buffer and incubated at 37° C for 2 hrs with continuous shaking. The ovarian glycolysis is then determined by measuring the concentration of lactic acid in the incubation medium. When polyphloretin phosphate (PPP) is present in the preincubation medium in a concentration of 500 μg/ml, the subsequent ovarian lactic acid production produced by PGE1 is reduced to about 50% of that obtained with ovaries preincubated in plain buffer. When sodium bis(4-(3-(2,4,6-trihydroxyphenyl)propyl)phenyl)phosphate is investigated in the same experimental system, a 50% reduction of the lactate production is seen when only 50-100 μg/ml of the compound is present in the preincubation medium.

[6] = test system: prostaglandins; experiment: quantitative assay: PG dose-response curves in the presence of inhibitor (Arunlakshana & Schild), gerbil colon; format: cell-based, Gerbils (Meriones unguiculatus)
Excerpt: (§1) Results from these experiments give an approximate idea of the PG-inhibitory potency of the compounds. When more precise information about this is desired we use a more elaborate method involving the establishment of several PG dose-response curves in the presence of various concentrations of inhibitor. The method used is essentially the same as that described by Arunlakshana & Schild (Br. J. Pharm. 14:48, 1959). Other agonists, acetylcholine,5-HT and bradykinin, are included in these experiments in order to determine the selectivity of the antagonism.
(§2) In the quantitative assay it is confirmed that sodium bis(4-(3-oxo-3-(2,4,6-trihydroxyphenyl)propyl)phenyl)phosphate has a PG inhibition potency about 10 times that of PPP on a weight basis, and also the results with sodium bis (3,5-dihydroxy-4-(3-(4-hydroxyphenyl)propionyl)phenyl)phosphate are confirmed.

[7] = test system: acetylcholine, 5-HT and bradykinin; experiment: selectivity of the antagonism: other agonists on the gerbil colon; format: cell-based, Gerbils (Meriones unguiculatus); settings: far higher concentrations than the prostaglandin-inhibitory ones
Excerpt: as §1, §2

Compound | inhibition of SRS [4] | selective inhibitory effects compared with PPP [2] | prostaglandin inhibiting activity [5] | further results
O=P(O)(Oc1ccccc1)Oc1ccccc1 [sodium salt of diphenyl phosphate, sodium diphenyl phosphates, reference compound] | without effect |  |  | effect on the colon ([1]; doses up to 400 mg/kg): no effects at all; effect on PG-induced contraction ([2]; concentrations 10 times as high as that of PPP): without effect; bronchoconstricting effect ([3]; dose 12.8 mg): completely lacked such an effect
COc1ccc(CCC(=O)c2c(O)cccc2O)cc1OP(=O)([O-])Oc1cc(CCC(=O)c2c(O)cccc2O)ccc1OC.[Na+] [sodium bis(5-(3-(2,6-dihydroxyphenyl)-3-oxopropyl)-2-methoxyphenyl)phosphate] | inhibit SRS | equal to or superior to that of PPP | same order | 
O=C(CCCc1ccc(OP(=O)([O-])Oc2ccc(CCCC(=O)c3ccc(O)cc3O)cc2)cc1)c1ccc(O)cc1O.[Na+] [sodium bis(4-(4-(2,4-dihydroxyphenyl)-4-oxobutyl)phenyl) phosphate] | inhibit SRS | equal to or superior to that of PPP | same order | 
O=C(CCc1cccc(OP(=O)(O)Oc2cccc(CCC(=O)c3ccc(OP(=O)(O)O)cc3)c2)c1)c1ccc(OP(=O)(O)O)cc1 [bis(dihydrogen phosphate) of bis(3-(3-(4-hydroxyphenyl)-3-oxopropyl)phenyl hydrogen phosphate] | inhibit SRS | equal to or superior to that of PPP | same order | 
O=C(CCc1ccc(O)cc1)c1c(O)cc(OP(=O)(O)Oc2cc(O)c(C(=O)CCc3ccc(O)cc3)c(O)c2)cc1O [sodium bis(3,5-dihydroxy-4-(3-(4-hydroxyphenyl)propionyl)phenyl phosphate] | inhibit SRS |  | same order | contraction of the colon [1]: give contraction in the same dose range; concentration for 50 per cent reduction of the PG-induced contraction, as fraction of that of PPP [2]: one fourth; results of the approximate assay (one fourth of the PPP concentration) in the quantitative assay [6]: confirmed; influence on the contractions elicited by acetylcholine, 5-HT or bradykinin [7]: no influence
O=C(CCc1ccc(OP(=O)([O-])Oc2ccc(CCC(=O)c3ccc(O)cc3O)cc2)cc1)c1ccc(O)cc1O.[Na+] [Sodium bis(4-(3-(2,4-dihydroxyphenyl)-3-oxopropyl)phenyl) phosphate] | inhibit SRS | equal to or superior to that of PPP | same order | contraction of the colon [1]: give contraction in the same dose range
O=C(CCc1ccc(OP(=O)([O-])Oc2ccc(CCC(=O)c3c(O)cc(O)cc3O)cc2)cc1)c1c(O)cc(O)cc1O.[Na+] [sodium bis(4-(3-oxo-3-(2,4,6-trihydroxyphenyl)-propyl)phenyl) phosphate] |  |  |  | minimal effective dose ([1]; Meriones unguiculatus, iv, infused i.v., gerbils anesthetized with pentobarbital, ascending colon, read-out: dose causing the gut to respond with a series of contractions): ≥ 40 mg/kg; concentration for 50 per cent reduction of the PG-induced contraction, as fraction of that of PPP [2]: about one tenth; PG inhibition potency relative to PPP ([6]; on a weight basis): about 10 times; influence on the contractions elicited by acetylcholine, 5-HT or bradykinin [7]: no influence; dose showing a bronchoconstricting effect ([3]; injected via the arterial cannula, about 0.5 mg and upwards): ≥ 0.5 mg; minimal effective concentration ([4]; Cavia porcellus, concentrations as low as, read-out: concentration that inhibits contractions produced by SRS): ≥ 5 µg/mL; manner of inhibition of SRS ([4]; parallel shift of the dose-response curves, no change in maximum contraction): competitive manner; activity as a prostaglandin inhibitor relative to PPP [5]: 5-10 times; IC50 ([5]; Rattus norvegicus, preincubation 60 min at 37° C, read-out: concentration in the preincubation medium giving a 50% reduction of the lactate production): 50 to 100 µg/mL
O=C(CCc1cccc(OP(=O)(O)Oc2cccc(CCC(=O)c3ccc(O)cc3)c2)c1)c1ccc(O)cc1 [sodium bis(3-(3-(4-hydroxyphenyl-3-oxopropyl)phenyl) phosphate] | inhibit SRS | equal to or superior to that of PPP | same order | 
O=C([O-])c1ccc(CCC(=O)c2cccc(OP(=O)([O-])Oc3cccc(C(=O)CCc4ccc(C(=O)[O-])cc4)c3)c2)cc1.[Na+].[Na+].[Na+] [trisodium bis(3-(3-(4-carboxylatophenyl)propionyl)phenyl) phosphate] | inhibit SRS | equal to or superior to that of PPP | same order | 
